In paper PMC7395068, “The evolution of strategies to minimise the risk of human drug-induced liver injury (DILI) in drug discovery and development” (Archives of Toxicology, 2020):
Read-outs that look alike come from different tables or passages of the source.

Assays:
[1] = Plasma free fraction (fu) and unbound Cmax (Cmax,u); assay type: in vitro ADME, human; details: unbound plasma Cmax
HepG2 = system: HepG2; parameters: method as in Albrecht 2019; details: In vitro Assay; ref Albrecht 2019; cited from earlier work
[2] = cited from earlier work
[3] = system: primary human hepatocytes, NIH3T3 fibroblasts, BSEP, CYP3A4; details: cited from earlier work
HepG2 cells = details: cited from earlier work
[4] = system: THLE or HepG2 cells, isolated mitochondria, BSEP; details: cited from earlier work
PHH [5] = details: cited from earlier work
hLiMTs [6] = details: cited from earlier work
PHH spheroids = details: cited from earlier work
[7] = system: HepG2 C3A spheroid, BSEP, Glu/Gal in HepG2 cells, bioactivation; details: cited from earlier work
[8] = read-out: Human plasma Cmax; total plasma Cmax.tot, median of 9 literature references; cited from earlier work
[9] = plasma free fraction; cited from earlier work
[10] = cited from earlier work; remark: listed apart in the source
PHH [11] = details: In vitro Assay; ref Albrecht 2019; cited from earlier work
[12] = system: THLE-Null and THLE-3A4 cells; details: In vitro Assay; ref Gustafsson 2014; cited from earlier work
[13] = system: HepG2 cells, primary human hepatocytes; details: In vitro Assay; ref Garside 2014; cited from earlier work
[14] = system: isolated mouse liver mitochondria; details: In vitro Assay; ref Porceddu 2012; cited from earlier work
[15] = ref Chen 2011; cited from earlier work
rBsep = details: In vitro Assay; ref Dawson 2012; cited from earlier work
hLiMTs [16] = test: Combined HCI (HCS) and cellular ATP 3D assay in hLiMTs; details: for AC50 / minimal effective concentration: Homo sapiens
HepaRG spheroids = test: Combined HCI (HCS) and cellular ATP 3D assay in HepaRG spheroids; details: for AC50 / minimal effective concentration: Homo sapiens
[17] = In vitro Assay, ref Schadt 2015
[18] = In vitro Assay, ref Persson 2013
[19] = Modeled in vitro assays (cytotoxicity, mitochondrial dysfunction, BSEP), ref Aleo et al. 2019
[20] = In vitro Assay, ref Proctor 2017
[21] = Microtissue model structural based (HCI), combined HCS and ATP, MEC < 25 × Cmax.tot cut-off

- Human plasma Cmax,u [1]: 0.048 µM
- hLiMTs <25x Avg Cmax ATP (hLiMTs [16]; hLiMTs, ATP endpoint, cut-off <25x Avg Cmax): +ve
- hLiMTs <100x Avg Cmaxu ATP (hLiMTs [16]; hLiMTs, ATP endpoint, cut-off <100x Avg Cmaxu): -ve
- hLiMTs <25x Avg Cmax HCS (hLiMTs [16]; hLiMTs, HCS endpoints, cut-off <25x Avg Cmax): +ve
- hLiMTs <100x Avg Cmaxu HCS (hLiMTs [16]; hLiMTs, HCS endpoints, cut-off <100x Avg Cmaxu): -ve
- hLiMTs <25x Avg Cmax All (hLiMTs [16]; hLiMTs, all endpoints (ATP and HCS), cut-off <25x Avg Cmax): +ve
- hLiMTs Cmax max All (hLiMTs [16]; hLiMTs, all endpoints, Cmax max used): +ve
- hLiMTs Cmax min All (hLiMTs [16]; hLiMTs, all endpoints, Cmax min used): +ve
- hLiMTs <10 uM All (hLiMTs [16]; hLiMTs, all endpoints, cut-off <10 uM): -ve
- hLiMTs <100x Avg Cmaxu All (hLiMTs [16]; hLiMTs, all endpoints, cut-off <100x Avg Cmaxu): -ve
- HepaRG <25x Avg Cmax ATP (HepaRG spheroids; HepaRG, ATP endpoint, cut-off <25x Avg Cmax): +ve
- HepaRG <100x Avg Cmaxu ATP (HepaRG spheroids; HepaRG, ATP endpoint, cut-off <100x Avg Cmaxu): -ve
- HepaRG <25x Avg Cmax HCS (HepaRG spheroids; HepaRG, HCS endpoints, cut-off <25x Avg Cmax): +ve
- HepaRG <100x Avg Cmaxu HCS (HepaRG spheroids; HepaRG, HCS endpoints, cut-off <100x Avg Cmaxu): -ve
- HepaRG <25x Avg Cmax All (HepaRG spheroids; HepaRG, all endpoints (ATP and HCS), cut-off <25x Avg Cmax): +ve
- HepaRG Cmax max All (HepaRG spheroids; HepaRG, all endpoints, Cmax max used): +ve
- HepaRG Cmax min All (HepaRG spheroids; HepaRG, all endpoints, Cmax min used): +ve
- HepaRG <10 uM All (HepaRG spheroids; HepaRG, all endpoints, cut-off <10 uM): -ve
- HepaRG <100x Avg Cmaxu All (HepaRG spheroids; HepaRG, all endpoints, cut-off <100x Avg Cmaxu): -ve
Compound: Cc1ccc(C(=O)c2cc(O)c(O)c([N+](=O)[O-])c2)cc1 [tolcapone, reference compound]
- Cytotoxicity HepG2 48 hrs (HepG2): +VE
- DILI severity category (Chen et al. [2016]) ([2]; LTKB DILIrank category, ref Chen et al. 2016): Most
- DILI severity category (Chen 2016) ([2]; human DILI classification, LTKB DILIrank, ref Chen et al. 2016): Most
- DILI severity category ([2]; human DILI severity, ref Chen et al.): Most
- DILI +VE (5-8), DILI -VE (-4) ([2]; ref Chen 2016): +VE
- DILI severity category ([2]; ref Chen 2016): vMost-DILI-Concern
- DILI in vitro assay prediction, Schadt (2015) ([3]; BSEP & Metabolism based, ref Schadt et al. 2015): +VE
- Cellular toxicity (3T3 cells) [3, 17]: +VE
- Combined Assay [3, 17]: +VE
- GSH adduct HML [3, 17]: +VE
- Hepatocyte cellular toxicity [3, 17]: +VE
- MitoTox 3T3 [3, 17]: -VE
- TDI CYP3A4 [3, 17]: -VE
- hBSEP inhibition [3, 17]: +VE
- Cluser analysis (HepG2 cells; [18]): -VE
- Structural based (HCI) (HepG2 cells; [18]): +VE
- DILI in vitro assay prediction, Persson (2013) (HepG2 cells; Structural based (HCI), HepG2, ref Persson et al. 2013): -VE
- Partition Hybrid HRM Score ([4]; In vitro Assay, ref Aleo 2019): +VE
- Ro2 Hybrid HRM Score ([4]; In vitro Assay, ref Aleo 2019): +VE
- Partition Hybrid HRM Score ≥4, Aleo (2019) [4, 19]: +VE (Partition Hybrid HRM Score ≥4)
- Partition Hybrid HRM Score ≥8, Aleo (2019) [4, 19]: +VE (Partition Hybrid HRM Score ≥8)
- Rule of Two hybrid HRM Score ≥3, Aleo (2019) [4, 19]: +VE (Rule of Two hybrid HRM Score ≥3)
- Rule of Two hybrid HRM Score ≥8, Aleo (2019) [4, 19]: +VE (Rule of Two hybrid HRM Score ≥8)
- PHH/100xCmax, Proctor (2017) (PHH [5]; 2D PHH, ATP, IC50 < 100 × Cmax.tot, ref Proctor et al. 2017): +VE (IC50 < 100 × Cmax.tot)
- PHH/100uM, Proctor (2017) (PHH [5]; 2D PHH, ATP, IC50 threshold 100 µM, ref Proctor et al. 2017): -VE
- PHH ATP <100uM (PHH [5]; [20]): +VE (IC50 threshold of 100 µM)
- hLiMTs ATP <100uM (hLiMTs [6]; [20]): +VE (IC50 threshold of 100 µM)
- hLiMTs/100xCmax, Proctor (2017) (hLiMTs [6]; hLiMTs, ATP, IC50 < 100 × Cmax.tot, ref Proctor et al. 2017): +VE (IC50 < 100 × Cmax.tot)
- hLiMTs/100uM, Proctor (2017) (hLiMTs [6]; hLiMTs, ATP, IC50 threshold 100 µM, ref Proctor et al. 2017): +VE (IC50 threshold of 100 µM)
- hLiMTs ATP <20 x Cmax (PHH spheroids; In vitro Assay, ref Vorrink 2018): +VE (IC20 < 20 × Cmax.tot cut-off)
- DILI in vitro assay prediction, Vorrink (2018) (PHH spheroids; PHH spheroids, ATP, 14 days, IC20 < 20 × Cmax.tot, ref Vorrink et al. 2018): +VE (IC20 < 20 × Cmax.tot cut-off)
- Bayesian Machine Learning DILI prediction, Williams (2019) ([7]; Bayesian modeling, ref Williams et al. 2019): +VE
- Bayesian Machine Learning ([7]; In vitro Assay, ref Williams 2019): +VE
- Cmax [8]: 47.6 µM
- fu [9]: 0.001
- Assigned DILI category ([10]; Chen et al. 2016 or literature alignment, ref Chen et al. 2016): 3
- In vivo DILI ([10]; ref Albrecht 2019): +VE
- In vivo DILI ([10]; ref Aleo 2019): +VE
- In vivo DILI ([10]; ref Dawson 2012): +VE
- In vivo DILI ([10]; ref Garside 2014): +VE
- In vivo DILI ([10]; ref Gustafsson 2014): +VE
- In vivo DILI ([10]; ref Persson 2013): +VE
- In vivo DILI ([10]; ref Porceddu 2012): +VE
- In vivo DILI ([10]; ref Proctor 2017): +VE
- In vivo DILI ([10]; ref Schadt 2015): +VE
- In vivo DILI ([10]; ref Vorrink 2018): +VE
- In vivo DILI ([10]; ref Williams 2019): +VE
- Cytotoxicity PHH 48 hrs (PHH [11]): +VE
- THLE-Null [12]: +VE
- THLE-Null/3A4 [12]: -VE
- Cluster 1-6 +VE Assay [13]: +VE
- in vitro data EC2<=1x Cmax [14]: +VE
- in vitro data EC20<=2uM [14]: -VE
- DILI Score (FDA) (1-8) [15]: 8
- Inhibition of rBsep cutoff<1& cmax u>.2 (rBsep): +VE
- Inhibition of rBsep cutoff<3 (rBsep): +VE
- AC50 (hLiMTs [16]; read-out: ATP endpoint AC50): 161 µM
- minimal effective concentration (hLiMTs [16]; read-out: ATP endpoint MEC): 114 µM
- AC50 (hLiMTs [16]; read-out: HCS endpoint AC50): 60.8 µM
- minimal effective concentration (hLiMTs [16]; read-out: HCS endpoint MEC): 24.1 µM
- DILI prediction hLiMTs (HCS-MEC) (hLiMTs [16]; [21]): +VE (MEC < 25 × Cmax.tot cut-off)
- AC50 (HepaRG spheroids; HepaRG, read-out: ATP endpoint AC50): 35.3 µM
- minimal effective concentration (HepaRG spheroids; HepaRG, read-out: ATP endpoint MEC): 20.5 µM
- AC50 (HepaRG spheroids; HepaRG, read-out: HCS endpoint AC50): 36.1 µM
- minimal effective concentration (HepaRG spheroids; HepaRG, read-out: HCS endpoint MEC): 21 µM
- DILI prediction HepaRG spheroids (HCS-MEC) (HepaRG spheroids; [21]): +VE (MEC < 25 × Cmax.tot cut-off)
